This is an account of results in patent US20220007651A1, “BACILLUS THURINGIENSIS STRAINS AND METHODS FOR CONTROLLING PESTS” (priority 2018, published 2022).

Test [1] relates to Spodoptera exigua Hübner (beet armyworm). In words: Insecticidal assay, second instars on 48-well agar substrate plates. It is filed as in vivo. An excerpt:
Zwittermicin A was partially purified from a strain derived from Bacillus thuringiensis strain NRRL B-67688. After growing the strain in a soy-based medium, the whole broth was centrifuged and the supernatant removed. The supernatant was passed through a 3 kDa filter to separate the zwittermicin A from larger molecules including any Cry toxins. The Vip3Aa11 protein was produced in the expression strain of Escherichia coli BL21 and applied to insect larvae as the E. coli whole broth culture (WB) at concentrations of 0.1%, 1%, and 10%. Treatment groups included Vip3Aa11 only (“no Zwa”); Vip3Aa11 with zwittermicin A (“1×Zwa); and Vip3Aa11 with concentrated zwittermicin A (“2×Zwa”) containing twice as much zwittermicin. Concentrations of zwittermicin A and Vip3Aa11 were adjusted by adding deionized water to prepare the appropriate dilutions. Control treatments included zwittermicin A (“1×Zwa”) alone, concentrated zwittermicin A alone (“2×Zwa”), untreated control, and a positive control containing 1000 ppm of a commercially available biological control agent active against Lepidoptera.
To evaluate the insecticidal activity of each treatment, second instars of Spodoptera exigua Hυbner (beet armyworm) were grown on 48-well plates containing an agar substrate similar to that described in Marrone et al., (1985), “Improvements in Laboratory Rearing of the Southern Corn Rootworm, Diabrotica undecimpuncta howardi Barber (Coleoptera: Chrysomelidae), on an Artificial Diet and Corn,” J. Econ. Entomol. 78: 290-293. Each treatment was applied to the agar substrate and a second instar was then placed in the well. After several days, insect development and survival were evaluated. Insect development scores were rated according to the following scale: 1=severely stunted; 2=highly stunted, minimal growth; 3=slightly smaller than untreated control; 4=same size as untreated control. […]
The experiment conducted in Example 3 was repeated with Cry1Ab1, Cry1Ia2, or Cry2Ab1 expressed in Escherichia coli BL21 and applied to insect larvae as the E. coli whole broth culture (WB) at concentrations of 0.2%, 4%, 10%, and 50%. The insect mortality score is based on the following scale: 4=0-25% mortality, 3=26-50% mortality, 2=51-79% mortality, 1=80-100% mortality. All percentages are adjusted according to any mortality observed with untreated control Spodoptera exigua Hυbner (beet armyworm) larvae. […] All reported mortality scores are the average of three replicate measurements.
The experiment in Example 3 was also repeated with Cry1Ca1 and Cry1Da1, which were expressed in Escherichia coli BL21 and applied to insect larvae as the E. coli whole broth culture (WB) at various concentrations. Instead of insect mortality rates, LC50, which in this case is the percentage of whole broth needed to cause 50% mortality, without zwittermicin or with various concentrations of zwittermicin, was determined.

The subject of the next test is Lepidopteran pests. Particulars: Broderick et al., 2000; cited from earlier work.
[2] abbreviates: Cry toxin applied alone, E. coli whole broth 0.2%, 4%, 10%, 50%.
The mark [3] stands for this setting: Cry toxin in combination with zwittermicin A (1×Zwa), FIGS. 4A-4C.

In the case of “Cry1Ab1: Cry toxin expressed in Escherichia coli BL21, applied as whole broth”, the insect mortality result in test [1] (setting [2]) is on record as “demonstrated insect mortality at the higher application rates”; in test [1] (setting [3]), “significant increase in insect mortality”.

With `NC(=O)NCC(NC(=O)[C@@H](O)[C@H](O)[C@H](N)C(O)CC(O)C(N)CO)C(N)=O` (some centres unmarked) [zwittermicin A], the insect mortality result is given as “generally had no observable effect on insect mortality” in test [1] (zwittermicin A alone, 1×Zwa) and “generally had no observable effect on insect mortality” in test [1] (zwittermicin alone at the concentrations used in the LC50 experiment). For the same molecule, the “effect on insect growth or survival” value in test [1] (zwittermicin alone, 1×Zwa or 2×Zwa) is on record as “no significant effect on insect growth or survival”. Further, the “insecticidal activity on its own” value in the test on Lepidopteran pests is recorded as “little or no observable insecticidal activity”.

With “Cry1Da1: Cry toxin, SEQ ID NO: 17, expressed in Escherichia coli BL21, applied as whole broth”, the “~LC50” value in test [1] (No Zwa) was >10 percentage of whole broth.

B1: Cry2Ab1: Cry toxin, SEQ ID NO: 10, expressed in Escherichia coli BL21, applied as whole broth (protein, listed as Bacillus thuringiensis)
chain: MNSVLNSGRTTICDAYNVAAHDPFSFQHKSLDTVQKEWTEWKKNNHSLYLDPIVGTVASFLLKKVGSLVGKRILSELRNLIFPSGSTNLMQDILRETEKFLNQRLNTDTLARVNAELTGLQANVEEFNRQVDNFLNPNRNAVPLSITSSVNTMQQLFLNRLPQFQMQGYQLLLLPLFAQAANLHLSFIRDVILNADEWGISAATLRTYRDYLKNYTRDYSNYCINTYQSAFKGLNTRLHDMLEFRTYMFLNVFEYVSIWSLFKYQSLLVSSGANLYASGSGPQQTQSFTSQDWPFLYSLFQVNSNYVLNGFSGARLSNTFPNIVGLPGSTTTHALLAARVNYSGGISSGDIGASPFNQNFNCSTFLPPLLTPFVRSWLDSGSDREGVATVTNWQTESFETTLGLRSGAFTARGNSNYFPDYFIRNISGVPLVVRNEDLRRPLHYNEIRNIASPSGTPGGARAYMVSVHNRKNNIHAVHENGSMIHLAPNDYTGFTISPIHATQVNNQTRTFISEKFGNQGDSLRFEQNNTTARYTLRGNGNSYNLYLRVSSIGNSTIRVTINGRVYTATNVNTTTNNDGVNDNGARFSDINIGNVVASSNSDVPLDINVTLNSGTQFDLMNIMLVPTNISPLY
Take B1: the insect mortality entry is “demonstrated insect mortality at the higher application rates” in test [1] (setting [2]) and “significant increase in insect mortality” in test [1] (setting [3]).

B2: Cry1Ia2: Cry toxin, SEQ ID NO: 9, expressed in Escherichia coli BL21, applied as whole broth (protein, listed as Bacillus thuringiensis)
chain: MKLKNQDKHQSFSSNAKVDKISTDSLKNETDIELQNINHEDCLKMSEYENVEPFVSASTIQTGIGIAGKILGTLGVPFAGQVASLYSFILGELWPKGKNQWEIFMEHVEEIINQKISTYARNKALTDLKGLGDALAVYHDSLESWVGNRNNTRARSVVKSQYIALELMFVQKLPSFAVSGEEVPLLPIYAQAANLHLLLLRDASIFGKEWGLSSSEISTFYNRQVERAGDYSDHCVKWYSTGLNNLRGTNAESWVRYNQFRRDMTLMVLDLVALFPSYDTQMYPIKTTAQLTREVYTDAIGTVHPHPSFTSTTWYNNNAPSFSAIEAAVVRNPHLLDFLEQVTIYSLLSRWSNTQYMNMWGGHKLEFRTIGGTLNISTQGSTNTSINPVTLPFTSRDVYRTESLAGLNLFLTQPVNGVPRVDFHWKFVTHPIASDNFYYPGYAGIGTQLQDSENELPPEATGQPNYESYSHRLSHIGLISASHVKALVYSWTHRSADRTNTIEPNSITQIPLVKAFNLSSGAAVVRGPGFTGGDILRRTNTGTFGDIRVNINPPFAQRYRVRIRYASTTDLQFHTSINGKAINQGNFSATMNRGEDLDYKTFRTVGFTTPFSFLDVQSTFTIGAWNFSSGNEVYIDRIEFVPVEVTYEAEYDFEKAQEKVTALFTSTNPRGLKTDVKDYHIDQVSNLVESLSDEFYLDEKRELFEIVKYAKQLHIERNM
On to B2, for which the insect mortality entry was “little observable effect on insect mortality” in test [1] (setting [2]) and “significant increase in insect mortality” in test [1] (setting [3]).
